In patent US10550110B2, “Tetrahydroquinoline sulfonamide derivatives as inverse agonists of retinoid-related orphan receptor gamma (ROR gamma (t))” (GALDERMA RESEARCH & DEVELOPMENT, priority 2014, dated 2020):
Where two headings read alike, the source gives them in different places.

Tests used:
[1] = target: T1, ROR gamma ligand-binding domain (LBD) (hRORg) (Homo sapiens, UniProt P51449); assay: GAL4-RORγ transactivation (luciferase reporter, HG5LN HeLa line); format: cell-based; settings: HG5LN HeLa line with GAL4 DBD fused to ROR gamma LBD, 18 hours incubation
T1 construct: expressed in transfected cells; host or cells: HG5LN (HeLa line with GAL4-responsive luciferase reporter)
T1 sequence (P51449 269-508 limits assumed): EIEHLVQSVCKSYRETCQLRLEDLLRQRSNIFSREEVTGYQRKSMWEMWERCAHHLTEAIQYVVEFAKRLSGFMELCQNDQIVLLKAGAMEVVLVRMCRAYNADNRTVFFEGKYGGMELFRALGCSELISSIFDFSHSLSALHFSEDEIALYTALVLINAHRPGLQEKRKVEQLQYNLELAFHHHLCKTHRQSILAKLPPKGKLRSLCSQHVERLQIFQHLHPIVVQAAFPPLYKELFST
From the text: GAL4—RORγ Transactivation
The RORγ transactivation model was developed from the line HG5LN, which is a HeLa line that stably expresses a luciferase reporter gene controlled by a pentamer of the GAL4 recognition domain of yeast and of a β-globin promoter. The HG5LN line was stably transfected by the DNA-binding domain (DBD) of GAL4 fused to the ROR gamma ligand-binding domain (LBD). Molecules that inhibit the ROR gamma constitutive activity reduce the luciferase expression, thus leading to a reduction in the emitted luminescence.
The cells are seeded in 384-well plates (5000 cells in 45 μL/well of culture medium containing 10% fetal calf serum) and incubated for 4 hours at 37° C., 5% CO2. 5 μL of the test molecules (compounds described in the tables described above) are then added to each well and the plates are incubated for 18 hours at a temperature of 37° C. under 5% of CO2. 20 μL of luciferase substrate (Promega) are added to each well and the luminescence emitted is read by a microplate reader.
The luminescence units (“RLU”) are normalized by positive controls (“POS” containing a saturated concentration of N-(2,2,2-trifluoroethyl)-N-[4-[2,2,2-trifluoro-1-hydroxy-1-(trifluoromethyl)ethyl]phenyl])benzenesulfonamide and negative controls (“NEG” containing DMSO): % inhibition=((RLU-NEG)*100)/(POS-NEG). The IC50 values are calculated from a 4-parameter logistic model using the XLFit software (IDBS).

[2] = test system: IL-17A secretion by CD4+ cells; assay: IL-17A secretion by CD4+ cells (HTRF); format: cell-based; settings: human peripheral blood CD4+ cells activated with anti-CD3 and anti-CD28, 4 days incubation, IL-17A by HTRF, read-out: IC50 hCD4/IL17
Method: This model allows measurement of the effect of inhibitors on IL-17A secretion by CD4+ cells. The cells are frozen CD4+ cells (STEMCELL, #70026), isolated from peripheral human blood and activated with anti-CD3 and anti-CD28 antibodies. The amount of IL-17A secreted is measured by the TR-FRET (kit HTRF® Human Interleukin 17A (Cisbio, #64H17PEC)) technology.
The cells are rapidly thawed, resuspended in their culture medium (RPMI inactivated 10% FCS) supplemented with soluble anti-CD28 antibodies and seeded (100 000 cells/well) in 96-well plates precoated with anti-CD3 antibodies. The cells are then treated with the ranges of inhibitors to be tested (from 1000 nM to 0.05 nM, 0.1% DMSO). After 4 days of incubation, the HTRF signal is measured using a microplate reader (λexcitation=337 nm, λemission=620/665 nm). The ratios obtained (665/620) are normalized relative to the positive control (cells activated with anti-CD3 and anti-CD28, 0.1% DMSO). The IC50 values are calculated from a 4-parameter logistic model using the XLFit software (IDBS).

| IC50 [1] [µM] | IC50 ([2]; 96 h) [µM] | IC50 [2] [µM] | SMILES |
| --- | --- | --- | --- |
| 0.1 to 1 | < 0.1 | – | CCc1ccc(N(CC(C)C)S(=O)(=O)c2ccc3c(c2)C(O)CCN3CC2CC(O)C2)cc1 (mixture of isomers) [Compound 20, 4-hydroxy-1-(3-hydroxycyclobutylmethyl)-1,2,3,4-tetrahydroquinoline-6-sulfonic acid (4-ethylphenyl)isobutylamide] |
| < 0.1 | 0.1 to 1 | – | CCc1ccc(N(CC(C)C)S(=O)(=O)c2ccc3c(c2)C(O)CCN3CC2CCOCC2)cc1 (racemic) [Compound 2, 4-hydroxy-1-(tetrahydropyran-4-ylmethyl)-1,2,3,4-tetrahydroquinoline-6-sulfonic acid (4-ethylphenyl)isobutylamide] |
| < 0.1 | – | < 0.1 | CCc1ccc(N(CC(C)C)S(=O)(=O)c2ccc3c(c2)C(O)CCN3CC2CCOCC2)cc1 (single isomer, unassigned) [Enantiomer 1, 4-hydroxy-1-(tetrahydropyran-4-ylmethyl)-1,2,3,4-tetrahydroquinoline-6-sulfonic acid (4-ethylphenyl)isobutylamide] |
| 0.1 to 1 | < 0.1 | – | CCc1ccc(N(CC(C)C)S(=O)(=O)c2ccc3c(c2)C(O)CCN3CC2CCOCC2)cc1 (single isomer, unassigned) [Enantiomer 2, 4-hydroxy-1-(tetrahydropyran-4-ylmethyl)-1,2,3,4-tetrahydroquinoline-6-sulfonic acid (4-ethylphenyl)isobutylamide] |
| 0.1 to 1 | 0.1 to 1 | – | CCc1ccc(N(CC(C)C)S(=O)(=O)c2ccc3c(c2)C(=O)CCN3CC2CCOCC2)cc1 [Compound 1, 4-oxo-1-(tetrahydropyran-4-ylmethyl)-1,2,3,4-tetrahydroquinoline-6-sulfonic acid (4-ethylphenyl)isobutylamide] |
| < 0.1 | < 0.1 | – | CCc1ccc(N(CC(C)C)S(=O)(=O)c2ccc3c(c2)C(=O)CCN3Cc2ccncc2)cc1 [Compound 4, 4-oxo-1-pyridin-4-ylmethyl-1,2,3,4-tetrahydroquinoline-6-sulfonic acid (4-ethylphenyl)isobutylamide] |
| < 0.1 | < 0.1 | – | CCc1ccc(N(CC(C)C)S(=O)(=O)c2ccc3c(c2)C(O)CCN3Cc2ccncc2)cc1 (stereo not shown) [Compound 10, 4-hydroxy-1-pyridin-4-ylmethyl-1,2,3,4-tetrahydroquinoline-6-sulfonic acid (4-ethylphenyl)isobutylamide] |
| < 0.1 | < 0.1 | – | CCc1ccc(N(CC(C)C)S(=O)(=O)c2ccc3c(c2)C(O)CCN3Cc2ccnc(F)c2)cc1 (stereo not shown) [Compound 11, 1-(2-fluoropyridin-4-ylmethyl)-4-hydroxy-1,2,3,4-tetrahydroquinoline-6-sulfonic acid (4-ethylphenyl)isobutylamide] |
| < 0.1 | < 0.1 | – | CCc1ccc(N(CC(C)C)S(=O)(=O)c2ccc3c(c2)C(O)CCN3CC2(C)CCOCC2)cc1 (stereo not shown) [Compound 14, 1-(4-methyltetrahydropyran-4-ylmethyl)-4-hydroxy-1,2,3,4-tetrahydroquinoline-6-sulfonic acid (4-ethylphenyl)isobutylamide] |
| 0.1 to 1 | < 0.1 | – | CCc1ccc(N(CC(C)C)S(=O)(=O)c2ccc3c(c2)C(O)CCN3CC2(F)CCOCC2)cc1 (stereo not shown) [Compound 15, 1-(4-fluorotetrahydropyran-4-ylmethyl)-4-hydroxy-1,2,3,4-tetrahydroquinoline-6-sulfonic acid (4-ethylphenyl)isobutylamide] |
| 0.1 to 1 | < 0.1 | – | CCc1ccc(N(CC(C)C)S(=O)(=O)c2ccc3c(c2)C(O)CCN3CC2(C)COC2)cc1 (stereo not shown) [Compound 19, 4-hydroxy-1-(3-methyloxetan-3-ylmethyl)-1,2,3,4-tetrahydroquinoline-6-sulfonic acid (4-ethylphenyl)isobutylamide] |
| > 1 | – | – | CCc1ccc(N(CC(C)C)S(=O)(=O)c2ccc3c(c2)C(O)CCN3CC2CCN(C(=O)OC)CC2)cc1 (stereo not shown) [Compound 51, methyl ester of 4-{6-[(4-ethylphenyl)isobutylsulfamoyl]-4-hydroxy-3,4-dihydro-2H-quinolin-1-ylmethyl}piperidine-1-carboxylic acid] |
| > 1 | – | – | CCc1ccc(N(CC(C)C)S(=O)(=O)c2ccc3c(c2)C(=O)CCN3CC2CCNCC2)cc1 [Compound 54, 4-oxo-1-piperidin-4-ylmethyl-1,2,3,4-tetrahydroquinoline-6-sulfonic acid (4-ethylphenyl)isobutylamide] |
| > 1 | – | – | CCc1ccc(N(CC(C)C)S(=O)(=O)c2ccc3c(c2)C(=O)CCN3C2CCNCC2)cc1 [Compound 55, 4-oxo-1-piperidin-4-yl-1,2,3,4-tetrahydroquinoline-6-sulfonic acid (4-ethylphenyl)isobutylamide] |
| > 1 | – | – | CCc1ccc(N(CC(C)C)S(=O)(=O)c2ccc3c(c2)C(O)CCN3CC2CCNCC2)cc1 (stereo not shown) [Compound 56, 4-hydroxy-1-piperidin-4-ylmethyl-1,2,3,4-tetrahydroquinoline-6-sulfonic acid (4-ethylphenyl)isobutylamide] |
| > 1 | – | – | CCc1ccc(N(CC(C)C)S(=O)(=O)c2ccc3c(c2)C(O)CCN3C2CCNCC2)cc1 (stereo not shown) [Compound 57, 4-hydroxy-1-piperidin-4-yl-1,2,3,4-tetrahydroquinoline-6-sulfonic acid (4-ethylphenyl)isobutylamide] |
| > 1 | – | – | CCc1ccc(N(CC(C)C)S(=O)(=O)c2ccc3c(c2)C(O)CCN3CC2CCN(C(C)=O)CC2)cc1 (stereo not shown) [Compound 58, 1-(1-acetylpiperidin-4-ylmethyl)-4-hydroxy-1,2,3,4-tetrahydroquinoline-6-sulfonic acid (4-ethylphenyl)isobutylamide] |
| > 1 | – | – | CCc1ccc(N(CC(C)C)S(=O)(=O)c2ccc3c(c2)C(O)CCN3CC2CCN(S(C)(=O)=O)CC2)cc1 (stereo not shown) [Compound 59, 4-hydroxy-1-(1-methanesulfonylpiperidin-4-ylmethyl)-1,2,3,4-tetrahydroquinoline-6-sulfonic acid (4-ethylphenyl)isobutylamide] |
| > 1 | – | – | CCc1ccc(N(CC(C)C)S(=O)(=O)c2ccc3c(c2)C(=O)CCN3C2CCN(C(C)=O)CC2)cc1 [Compound 60, 1-(1-acetylpiperidin-4-yl)-4-oxo-1,2,3,4-tetrahydroquinoline-6-sulfonic acid (4-ethylphenyl)isobutylamide] |
| > 1 | – | – | CCc1ccc(N(CC(C)C)S(=O)(=O)c2ccc3c(c2)C(O)CCN3C2CCN(C(C)=O)CC2)cc1 (stereo not shown) [Compound 61, 1-(1-acetylpiperidin-4-yl)-4-hydroxy-1,2,3,4-tetrahydroquinoline-6-sulfonic acid (4-ethylphenyl)isobutylamide] |
| > 1 | – | – | CCc1ccc(N(CC(C)C)S(=O)(=O)c2ccc3c(c2)C(=O)CCN3C2CCN(S(C)(=O)=O)CC2)cc1 [Compound 63, 1-(1-methanesulfonylpiperidin-4-yl)-4-oxo-1,2,3,4-tetrahydroquinoline-6-sulfonic acid (4-ethylphenyl)isobutylamide] |
| > 1 | – | – | CCc1ccc(N(CC(C)C)S(=O)(=O)c2ccc3c(c2)C(O)CCN3C2CCN(S(C)(=O)=O)CC2)cc1 (stereo not shown) [Compound 64, 4-hydroxy-1-(1-methanesulfonylpiperidin-4-yl)-1,2,3,4-tetrahydroquinoline-6-sulfonic acid (4-ethylphenyl)isobutylamide] |
| > 1 | – | – | COc1ccc(N(C(C)C)S(=O)(=O)c2ccc3c(c2)C(O)CCN3Cc2cn[nH]c2)c(C)c1 (stereo not shown) [Compound 65, 4-hydroxy-1-(1H-pyrazol-4-ylmethyl)-1,2,3,4-tetrahydroquinoline-6-sulfonic acid isopropyl(4-methoxy-2-methylphenyl)amide] |
